From publication PMC6150237, “Study of Absorption Characteristics of the Total Saponins from Radix Ilicis Pubescentis in an In Situ Single-Pass Intestinal Perfusion (SPIP) Rat Model by Using Ultra Performance Liquid Chromatography (UPLC)” (Molecules : A Journal of Synthetic Chemistry and Natural …, 2017)
Several values for one entry are separate records, joined by “and”; a condition that tells them apart may be missing. Equal values may be shown once. Entries after “also recorded” stand apart in the source; their conditions may differ.

Columns and labels:
[1] = system: rat duodenum; assay: SPIP of MDQ-TS with or without verapamil (P-gp inhibitor); format: in vivo; details: MDQ-TS 2.5 mg/mL; for Ka increase in comparison with non-Verapamil added group / Papp increase in comparison with non-Verapamil added group: verapamil 200 μmol·L^−1
Description: (§1) MDQ-TS perfusion samples at low, middle, and high concentration levels of 1.25, 2.5, and 5.0 mg·mL^−1 were prepared by separately dissolving MDQ-TS in the minimum amount of DMSO and diluted with K-R buffer solution. The amount of DMSO was 0.5% in the final perfusion solutions. C1, C2, C3, C4, DC1, and DC2 perfusion samples with the concentration equivalent to the amount contained in 2.5 mg·mL^−1 of MDQ-TS were individually prepared in the same way. Verapamil, amantadine and EDTA were directly dissolved in the MDQ-TS perfusate with terminal concentrations of 200 μmol·L^−1, 2.5 mmol·L^−1, and 2.5 mmol·L^−1, accordingly, and used for investigating the mechanisms involved for absorption.
(§2) In situ single-pass intestinal perfusion (SPIP) studies were performed using an experimental design adapted from the literature with some modifications. Briefly, male Sprague-Dawley rats weighing 180–220 g were acclimatized for at least one week before the experiment, and fasted for 18 h with free access to water before the perfusion experiment. Rats were anesthetized with an intraperitoneal injection of urethane (30 mg·kg^−1 body weight), and kept on a homeothermic blanket to maintain normal body temperature. The abdomen was opened with a midline longitudinal incision, and three segments of rat intestine (duodenum, jejunum, and ileum) of approximately 10 cm each were carefully cannulated on two ends with plastic tubing. Initially, the perfusion solution free of drug (37 °C) was pumped by peristaltic pump (BT100-1F, Longer Pump Co., Baoding, China) through the cannulated segments at a flow rate of 1 mL/min for approximately 30 min in order to clean out any residual debris. Secondly, the perfusion solution containing a known concentration of substance (C1, C2, C3, C4, DC1, DC2, and MDQ-TS) was perfused at 37 °C through the intestinal lumen at a constant flow rate of 0.2 mL/min. The first 20 min of period corresponds to steady state, i.e., when the substance is in equilibrium with the intestinal membrane. After steady state, samples were collected from distal portion of duodenum, jejunum and ileum at 10 min intervals (0–10, 10–20, 20–30, 30–40, 40–50, 50–60 min) in pre-weighted vials. Samples were immediately frozen at −20 °C until analysis by validated UPLC. During the experiment, care was taken to avoid disturbance of the circulatory system and the exposed segment was covered with a piece of sterilized gauze to keep it warm and moist by frequent application of warm (37 °C) saline. The intestinum tenue maintained its viability and intact state without disrupting the blood supply throughout the experimental period. Finally, animals were sacrificed after depth anesthesia by intraperitoneal injection of urethane, according to protocols for euthanasia in experimental animals. After death, the intestinal segment was removed for measurements of length and inside diameter.
(§3) The net water flux in the in situ perfusion studies (water absorption and efflux in the intestinal segment) was determined by gravimetric method. The effective absorption rate constant (Ka) and effective apparent permeability (Papp) of compounds in the intestinal segments were calculated according to the following mathematical expression:(1) Ka=(1−CoutQout/CinQin)Q/V (2) Papp=−Qln(CoutQout/CinQin)/2πrl where Cin and Cout are the concentration of test drug in the effluent perfusate through the inlet and outlet tube (μg·mL^−1), respectively. Qin and Qout represent the inlet and outlet volume of effluent perfusate (mL), respectively. Q is the volume flow rate of perfusion (mL·h^−1). V is the volume of the intestinal segment concerned (mL). 2πrl is the area of the mass transfer surface of intestinal segment concerned (cm^2). […]

[2] = Apparent oil-water partition coefficient, shake-flask method; format: physicochemical; details: n-octanol / phosphate buffer pH 1.2-9.0, 37 °C; Kow = log Co/(Ct−Co)
Description: The equilibrium partitioning of C1, C2, C3, C4, DC1, and DC2 between organic lipid and water (Kow) was determined in our study by the traditional shake-flask method (SFM). Briefly, 0.5 mL of each saponin standard working solution (100 µg·mL^−1 in water-saturated n-octanol) was accurately measured into 5 mL centrifuge tubes, and spiked with 0.5 mL of different phosphate buffer solutions (pH: 1.2, 2.0, 3.6, 5.8, 6.8, 7.4, 7.8, and 9.0), respectively. After vortex-mixing for 45 min, the tubes were kept in a temperature-stable horizontal shaking bath (37 °C) for 24 h, and then centrifuged at 13,000 rpm for 10 min. Two hundred microliters of organic supernatant solution was measured, diluted with 800 µL of methanol, and mixed well. Ten microliters of the final solution was injected into the HPLC system (detailed experimental conditions and method validation results were not shown) for determination of the drug concentration in the n-octanol phase. The Kow values of the six saponins were calculated according to the following mathematical expression:(3) Kow=logCo/Ct−Co where Ct is the total concentration of the drug, and Co is the concentration of the drug in n-octanol phase.

[3] = system: rat duodenum; assay: SPIP of MDQ-TS with or without amantadine (endocytosis inhibitor); format: in vivo; details: MDQ-TS 2.5 mg/mL; for decrease of absorption compared with non-Amantadine added group: amantadine 2.5 mmol·L^−1
Description: as §1, §2, §3

[4] = In situ single-pass intestinal perfusion (SPIP), saponins administrated in MDQ-TS form; format: in vivo, rat; details: male, Sprague-Dawley, rat, other: in situ single-pass intestinal perfusion
Description: as §1, §2
(§4) The net water flux in the in situ perfusion studies (water absorption and efflux in the intestinal segment) was determined by gravimetric method. The effective absorption rate constant (Ka) and effective apparent permeability (Papp) of compounds in the intestinal segments were calculated according to the following mathematical expression:(1) Ka=(1−CoutQout/CinQin)Q/V (2) Papp=−Qln(CoutQout/CinQin)/2πrl where Cin and Cout are the concentration of test drug in the effluent perfusate through the inlet and outlet tube (μg·mL^−1), respectively. Qin and Qout represent the inlet and outlet volume of effluent perfusate (mL), respectively. Q is the volume flow rate of perfusion (mL·h^−1). V is the volume of the intestinal segment concerned (mL). 2πrl is the area of the mass transfer surface of intestinal segment concerned (cm^2).

[5] = In situ single-pass intestinal perfusion (SPIP), saponins administrated in monomer forms; format: in vivo; design: key to Papp / Ka: -: no absorption; details: male, Sprague-Dawley, rat, other: in situ single-pass intestinal perfusion
Description: as §1, §2, §4

[6] = system: rat small intestine (duodenum, jejunum, ileum); assay: as above; format: in vivo; design: key to Papp / Ka: -: no absorption; details: for permeability classification: monomers, Papp > 0.12 × 10^−2 cm·min^−1 classified as completely absorbed (highly permeable); for intestinal absorption of monomers: small intestine, result in words
Description: as §1, §2, §4

[7] = administered in monomer forms, summary bound
[8] = monomer form, duodenum, concentration equivalent to 2.5 mg·mL^−1 MDQ-TS, n = 5

| Molecule | Ka increase in comparison with non-Verapamil added group [1] | apparent oil-water partition coefficient (Kow) [2] | decrease of absorption compared with non-Amantadine added group [3] [%] | Ka [6, 8] | Ka ([6]; monomer form, ileum, n = 5) | Ka ([6]; monomer form, jejunum, n = 5) | permeability classification [6] | Papp increase in comparison with non-Verapamil added group [1] [fold] | Ka ([6]; monomer form, duodenum, symbol) | Papp ([6]; monomer form, duodenum, symbol) | Ka ([6]; monomer form, ileum, symbol) | Papp ([6]; monomer form, ileum, symbol) | Ka ([6]; monomer form, jejunum, symbol) | Papp ([6]; monomer form, jejunum, symbol) | intestinal absorption of monomers ([6]; monomer form) | other results |
| --- | --- | --- | --- | --- | --- | --- | --- | --- | --- | --- | --- | --- | --- | --- | --- | --- |
| C[C@@H]1CC[C@]2(C(=O)O)CC[C@]3(C)C(=CC[C@@H]4[C@@]5(C)CC[C@H](O)[C@@](C)(C(=O)O)[C@@H]5CC[C@]43C)[C@@H]2[C@]1(C)O [C1, ilexgenin A] | about 1.5 fold | −1 to 2 | 40 | 1.77 ± 0.17 ×10^−2 min^−1 | 1.50 ± 0.25 ×10^−2 min^−1 | 1.65 ± 0.19 ×10^−2 min^−1 | highly permeable |  |  |  |  |  |  |  |  | Papp ([4]; MDQ-TS form 1.25 mg·mL^−1, duodenum, n = 5): 36.7 ×10⁻⁶ cm/s; Papp ([4]; MDQ-TS form 1.25 mg·mL^−1, ileum, n = 5): 25 ×10⁻⁶ cm/s; Papp ([4]; MDQ-TS form 1.25 mg·mL^−1, jejunum, n = 5): 28.3 ×10⁻⁶ cm/s; Papp ([4]; MDQ-TS form 2.5 mg·mL^−1, duodenum, n = 5): 50 ×10⁻⁶ cm/s; Papp ([4]; MDQ-TS form 2.5 mg·mL^−1, ileum, n = 5): 68.3 ×10⁻⁶ cm/s; Papp ([4]; MDQ-TS form 2.5 mg·mL^−1, jejunum, n = 5): 55 ×10⁻⁶ cm/s; Papp ([4]; MDQ-TS form 5.0 mg·mL^−1, duodenum, n = 5): 56.7 ×10⁻⁶ cm/s; Papp ([4]; MDQ-TS form 5.0 mg·mL^−1, ileum, n = 5): 41.7 ×10⁻⁶ cm/s; Papp ([4]; MDQ-TS form 5.0 mg·mL^−1, jejunum, n = 5): 61.7 ×10⁻⁶ cm/s; Papp ([4]; administrated in MDQ-TS form, summary bound (except DC2 in 1.25 mg·mL^−1 MDQ-TS group)): > 20 ×10⁻⁶ cm/s; Papp [5, 7]: > 20 ×10⁻⁶ cm/s; Papp [5, 8]: 55 ×10⁻⁶ cm/s; Papp ([5]; monomer form, ileum, n = 5): 50 ×10⁻⁶ cm/s; Papp ([5]; monomer form, jejunum, n = 5): 58.3 ×10⁻⁶ cm/s |
| C[C@H]1CC[C@]2(C(=O)O)CC[C@]3(C)C(=CC[C@@H]4[C@@]5(C)CC[C@H](O[C@@H]6OC[C@@H](O)[C@H](O)[C@H]6O[C@@H]6O[C@H](CO)[C@@H](O)[C@H](O)[C@H]6O)C(C)(C)[C@@H]5CC[C@]43C)[C@@H]2[C@]1(C)O [C3, ilexsaponin B1] | ~1.2 fold | −1 to 2 |  | 1.49 ± 0.36 ×10^−2 min^−1 | 1.38 ± 0.06 ×10^−2 min^−1 | 1.56 ± 0.30 ×10^−2 min^−1 | highly permeable | ~1.4 |  |  |  |  |  |  |  | Papp [6, 7]: > 0.0012 cm/min; Papp [6, 8]: 0.23 ×10^−2 cm·min^−1 and 0.23 ± 0.02 ×10^−2 cm·min^−1; Papp ([6]; monomer form, ileum, n = 5): 0.21 ± 0.06 ×10^−2 cm·min^−1; Papp ([6]; monomer form, jejunum, n = 5): 0.23 ×10^−2 cm·min^−1 and 0.23 ± 0.05 ×10^−2 cm·min^−1 |
| C[C@@H]1O[C@@H](O[C@H]2[C@H](O[C@H]3[C@H](O[C@H]4CC[C@]5(C)[C@H]6CC=C7[C@H]8[C@](C(=O)O)(CC[C@H](C)[C@@]8(C)O)CC[C@@]7(C)[C@]6(C)CC[C@H]5C4(C)C)OC[C@@H](O)[C@@H]3O)O[C@H](CO)[C@@H](O)[C@@H]2O)[C@H](O)[C@H](O)[C@H]1O [C4, ilexsaponin B2] | about 1.5 fold | −1 to 2 | 31 |  |  |  |  |  | - | - | - | - | - | - | could not be absorbed by small intestine at all; also recorded: no absorption; also recorded: could not be absorbed by the gastrointestinal tract at all |  |
| C[C@@H]1O[C@@H](O[C@H]2[C@H](O[C@H]3[C@H](O[C@H]4CC[C@]5(C)[C@H]6CC=C7[C@H]8[C@](C(=O)O[C@@H]9O[C@H](CO)[C@@H](O)[C@H](O)[C@H]9O)(CC[C@H](C)[C@@]8(C)O)CC[C@@]7(C)[C@]6(C)CC[C@H]5C4(C)C)OC[C@@H](O)[C@@H]3O)O[C@H](CO)[C@@H](O)[C@@H]2O)[C@H](O)[C@H](O)[C@H]1O [DC2, ilexoside O] |  | −1 to 2 | 100 |  |  |  |  |  | - | - | - | - | - | - | could not be absorbed by small intestine at all; also recorded: no absorption; also recorded: could not be absorbed by the gastrointestinal tract at all | intestinal absorption in Verapamil added group ([1]; verapamil 200 μmol·L^−1, result in words): could not be absorbed by the small intestine at all; absorption when co-perfusion with Amantadine ([3]; amantadine 2.5 mmol·L^−1, result in words): completely inhibited |
| ilexsaponin B3 [DC1] | ~2.9 fold | −1 to 2 | 53 |  |  |  |  | ~3.4 | - | - | - | - | - | - | could not be absorbed by small intestine at all; also recorded: no absorption; also recorded: could not be absorbed by the gastrointestinal tract at all |  |
